Source: patent US20160046618A1, “Cyclopropyl Fused Thiazin-2-Amine Compounds as Beta-Secretase Inhibitors and Methods of Use” (AMGEN INC., priority 2014, published 2016)

Assays:
human recombinant BACE1 = human recombinant BACE1 (Homo sapiens (Human), UniProt P56817); test: In vitro enzymatic BACE1 FRET assay; assay type: biochemical; conditions: read-out: IC50 IP (μM) BACE1 enzyme
Outline: (§1)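 Read-out: dequenched fluorescence, excitation 488 nm, emission 590 nm, after proteolysis of a quenched peptide spanning the BACE cleavage site. Substrate at 50 nM, 1 h incubation, termination by Tris addition to neutral pH.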

human recombinant BACE2 = human recombinant BACE2 (Homo sapiens (Human), UniProt Q9Y5Z0); test: In vitro enzymatic BACE2 FRET assay; assay type: biochemical; conditions: read-out: IC50 IP (μM) BACE2 enzyme
human recombinant BACE2, sequence (Q9Y5Z0 63-518): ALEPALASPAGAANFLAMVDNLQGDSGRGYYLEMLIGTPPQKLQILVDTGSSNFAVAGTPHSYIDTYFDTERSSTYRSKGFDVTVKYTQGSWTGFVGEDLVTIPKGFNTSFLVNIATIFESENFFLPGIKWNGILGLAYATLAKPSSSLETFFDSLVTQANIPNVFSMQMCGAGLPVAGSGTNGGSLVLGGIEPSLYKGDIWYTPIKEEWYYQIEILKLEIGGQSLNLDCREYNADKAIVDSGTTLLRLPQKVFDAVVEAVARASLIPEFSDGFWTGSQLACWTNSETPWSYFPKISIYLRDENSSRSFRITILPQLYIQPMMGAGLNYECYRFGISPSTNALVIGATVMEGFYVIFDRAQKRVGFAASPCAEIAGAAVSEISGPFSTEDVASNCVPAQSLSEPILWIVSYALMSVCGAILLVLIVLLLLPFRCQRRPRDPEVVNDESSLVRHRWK
Outline: as §1

[1] = system: Aβ40 in conditioned medium of cells stably expressing Amyloid Precursor Protein (APP); test: In vitro BACE-1 cell-based assay (Aβ40 sandwich ELISA); conditions: read-out: IC50 IP (μM) BACE1 cell
Outline: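 Read-out: time-resolved fluorescence (Streptavidin-Europium) of Aβ40 captured by pAb40 and detected with biotinylated 6E10 from supernatants of APP-stable cells. Cells were exposed to compound for 24 h, 10-point dose response, top dose 100 μM or 10 μM, 0.1% DMSO. IC50 fitted to percent of control.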

Recombinant Cat D = Recombinant Cat D (Homo sapiens (Human), UniProt P07339); test: In vitro enzymatic Cathepsin D (Cat D) FRET assay; assay type: biochemical; conditions: read-out: IC50 IP (μM) CatD
Recombinant Cat D, sequence (P07339 65-412): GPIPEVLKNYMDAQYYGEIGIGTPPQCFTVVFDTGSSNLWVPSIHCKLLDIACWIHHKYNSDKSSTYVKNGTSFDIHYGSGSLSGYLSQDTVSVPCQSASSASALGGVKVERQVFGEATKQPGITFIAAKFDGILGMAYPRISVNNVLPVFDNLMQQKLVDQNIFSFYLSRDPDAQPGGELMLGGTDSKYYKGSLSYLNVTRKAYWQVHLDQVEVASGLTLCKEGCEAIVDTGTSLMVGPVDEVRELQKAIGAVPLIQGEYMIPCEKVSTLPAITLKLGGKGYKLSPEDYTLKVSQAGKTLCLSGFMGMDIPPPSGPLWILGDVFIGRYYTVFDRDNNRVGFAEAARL
Outline: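 Assay pH is 3.5 (0.05 M citrate, 5 mM CHAPS, 10% DMSO final) with Cat D from CHO cells. A 20 nM quenched peptide substrate is cleaved over one hour; the reaction is ended with Tris and read by fluorescence (ex 500, em 580 nm).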

human recombinant BACE1, sequence (P56817 46-501): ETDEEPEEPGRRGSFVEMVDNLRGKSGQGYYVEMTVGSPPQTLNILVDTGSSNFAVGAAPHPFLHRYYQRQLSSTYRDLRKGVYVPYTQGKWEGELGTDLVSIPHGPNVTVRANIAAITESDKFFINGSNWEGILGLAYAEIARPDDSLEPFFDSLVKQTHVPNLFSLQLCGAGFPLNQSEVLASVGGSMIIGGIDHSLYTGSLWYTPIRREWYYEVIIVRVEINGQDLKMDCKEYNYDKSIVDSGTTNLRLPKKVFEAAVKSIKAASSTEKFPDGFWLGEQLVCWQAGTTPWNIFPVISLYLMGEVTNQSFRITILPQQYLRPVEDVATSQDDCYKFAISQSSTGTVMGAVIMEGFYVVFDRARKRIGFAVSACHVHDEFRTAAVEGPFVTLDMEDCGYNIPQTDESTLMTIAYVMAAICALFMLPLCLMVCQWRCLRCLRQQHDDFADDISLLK

Row | Structure (SMILES) | IC50 (human recombinant BACE1) | IC50 (human recombinant BACE2) | IC50 [1] | IC50 (Recombinant Cat D)
1 | [2H]C([2H])([2H])OC[C@]12C[C@H]1[C@@](C)(c1cc(Nc3nccc4nc(OCC#C)cnc34)cnc1F)N=C(N)S2 [Example 853, N-(5-((1S,5S,6S)-3-amino-5-methyl-1-(((~2~H_3_)methyloxy)methyl)-2-thia-4-azabicyclo[4.1.0]hept-3-en-5-yl)-6-fluoro-3-pyridinyl)-2-(2-propyn-1-yloxy)pyrido[3,4-b]pyrazin-5-amine] | 0.000878 µM | 0.0244 µM | 0.000961 µM | 791 µM
2 | [2H]C([2H])([2H])OC[C@]12C[C@H]1[C@@](C)(c1cc(Nc3nccc4nc(OC([2H])([2H])C#C)cnc34)cnc1F)N=C(N)S2 [Example 854, N-(5-((1S,5S,6S)-3-amino-5-methyl-1-(((~2~H_3_)methyloxy)methyl)-2-thia-4-azabicyclo[4.1.0]hept-3-en-5-yl)-6-fluoro-3-pyridinyl)-2-((1,1-~2~H_2_)-2-propyn-1-yloxy)pyrido[3,4-b]pyrazin-5-amine] | 0.00144 µM | 0.0383 µM | 0.00134 µM | 1240 µM
3 | COC(=O)c1cc(NC(=O)c2ccc(Cl)cn2)cc([C@@]2(C)N=C(N)S[C@@]3(C(=O)OC)C[C@H]32)c1F [Example 855, (1S,5S,6S)-methyl 3-amino-5-(5-(5-chloropicolinamido)-2-fluoro-3-(methoxycarbonyl)phenyl)-5-methyl-2-thia-4-azabicyclo[4.1.0]hept-3-ene-1-carboxylate] | 0.198 µM | 0.0224 µM | 0.294 µM | > 400 µM
4 | C#CCOc1cnc2c(Nc3cc(C(=O)OC)c(F)c([C@@]4(C)N=C(N)S[C@@]5(C(=O)OC)C[C@H]54)c3)nccc2n1 [Example 856, (1S,5S,6S)-methyl 3-amino-5-(2-fluoro-3-(methoxycarbonyl)-5-((2-(prop-2-yn-1-yloxy)pyrido[3,4-b]pyrazin-5-yl)amino)phenyl)-5-methyl-2-thia-4-azabicyclo[4.1.0]hept-3-ene-1-carboxylate] | 0.071 µM | 0.657 µM | 0.249 µM | 116 µM
5 | C#CCOc1cnc2c(Nc3cc(C(=O)OC)c(F)c([C@@]4(C)N=C(N)S[C@@]5(CO)C[C@H]54)c3)nccc2n1 [Example 857, methyl 3-((1S,5S,6S)-3-amino-1-(hydroxymethyl)-5-methyl-2-thia-4-azabicyclo[4.1.0]hept-3-en-5-yl)-2-fluoro-5-((2-(prop-2-yn-1-yloxy)pyrido[3,4-b]pyrazin-5-yl)amino)benzoate] | 0.0678 µM | 0.346 µM | 0.0156 µM | 2520 µM
6 | C[C@]1(c2cc(NC(=O)c3ccc(Cl)cn3)cc(CO)c2F)N=C(N)S[C@@]2(CO)C[C@H]21 [Example 858, N-(3-((1S,5S,6S)-3-amino-1-(hydroxymethyl)-5-methyl-2-thia-4-azabicyclo[4.1.0]hept-3-en-5-yl)-4-fluoro-5-(hydroxymethyl)phenyl)-5-chloropicolinamide] | 0.00085 µM | < 0.00203 µM | 0.000487 µM | > 400 µM
7 | C#CCOc1cnc(C(=O)Nc2cnc(F)c([C@@]3(C)N=C(N)S[C@@]4(COC)C[C@H]43)c2)cn1 [Example 859, N-(5-((1S,5S,6S)-3-amino-1-(methoxymethyl)-5-methyl-2-thia-4-azabicyclo[4.1.0]hept-3-en-5-yl)-6-fluoro-3-pyridinyl)-5-(2-propyn-1-yloxy)-2-pyrazinecarboxamide] | 0.000799 µM | 0.0194 µM | 0.000762 µM | 590 µM
8 | Cc1nc(OCc2ncco2)cnc1C(=O)Nc1cc(F)c(F)c([C@@]2(C)N=C(N)S[C@@]3(C(F)F)C[C@@H]23)c1 [Example 860, N-(3-((1S,5S,6S)-3-amino-1-(difluoromethyl)-5-methyl-2-thia-4-azabicyclo[4.1.0]hept-3-en-5-yl)-4,5-difluorophenyl)-3-methyl-5-(1,3-oxazol-2-ylmethoxy)-2-pyrazinecarboxamide] | 0.00276 µM | 0.0286 µM | 0.00853 µM | 1010 µM
9 | C#CCOc1cnc(C(=O)Nc2cc(F)c(F)c([C@@]3(C)N=C(N)S[C@@]4(C(F)F)C[C@@H]34)c2)c(C)n1 [Example 861, N-(3-((1S,5S,6S)-3-amino-1-(difluoromethyl)-5-methyl-2-thia-4-azabicyclo[4.1.0]hept-3-en-5-yl)-4,5-difluorophenyl)-3-methyl-5-(2-propyn-1-yloxy)-2-pyrazinecarboxamide] | 0.000889 µM | 0.0176 µM | 0.00754 µM | 146 µM
10 | C#CCOc1cnc(C(=O)Nc2cc(F)c(F)c([C@@]3(C)N=C(N)S[C@@]4(COC)C[C@H]43)c2)c(C)n1 [Example 862, N-(3-((1S,5S,6S)-3-amino-1-(methoxymethyl)-5-methyl-2-thia-4-azabicyclo[4.1.0]hept-3-en-5-yl)-4,5-difluorophenyl)-3-methyl-5-(2-propyn-1-yloxy)-2-pyrazinecarboxamide] | 0.000598 µM | 0.017 µM | 0.0072 µM | 129 µM
11 | COC[C@]12C[C@H]1[C@@](C)(c1cc(NC(=O)c3ncc(OCc4ncco4)nc3C)cc(F)c1F)N=C(N)S2 [Example 863, N-(3-((1S,5S,6S)-3-amino-1-(methoxymethyl)-5-methyl-2-thia-4-azabicyclo[4.1.0]hept-3-en-5-yl)-4,5-difluorophenyl)-3-methyl-5-(1,3-oxazol-2-ylmethoxy)-2-pyrazinecarboxamide] | 0.00228 µM | 0.0249 µM | 0.00635 µM | 467 µM
12 | COC[C@]12C[C@H]1[C@@](C)(c1cc(NC(=O)c3ncc(O[C@@H](C)c4ncco4)nc3C)cc(F)c1F)N=C(N)S2 [Example 864, N-(3-((1S,5S,6S)-3-amino-1-(methoxymethyl)-5-methyl-2-thia-4-azabicyclo[4.1.0]hept-3-en-5-yl)-4,5-difluorophenyl)-3-methyl-5-((1S)-1-(1,3-oxazol-2-yl)ethoxy)-2-pyrazinecarboxamide] | 0.0609 µM | 0.652 µM | 0.172 µM | 621 µM
13 | CC#CCOc1cnc2c(Nc3ccc(F)c([C@@]4(CF)N=C(N)S[C@@]5(CF)C[C@H]54)c3)nccc2n1 [Example 865, N-(3-((1S,5S,6S)-3-amino-1,5-bis(fluoromethyl)-2-thia-4-azabicyclo[4.1.0]hept-3-en-5-yl)-4-fluorophenyl)-2-(2-butyn-1-yloxy)pyrido[3,4-b]pyrazin-5-amine] | 0.000236 µM | 0.0123 µM | 0.00301 µM | 325 µM
14 | C[C@]1(c2cc(Nc3nccc4nc(OCc5ncco5)cnc34)cc(F)c2F)N=C(N)S[C@@]2(C(F)F)C[C@@H]12 [Example 866, N-(3-((1S,5S,6S)-3-amino-1-(difluoromethyl)-5-methyl-2-thia-4-azabicyclo[4.1.0]hept-3-en-5-yl)-4,5-difluorophenyl)-2-(1,3-oxazol-2-ylmethoxy)pyrido[3,4-b]pyrazin-5-amine] | 0.000941 µM | 0.0285 µM | 0.0115 µM | > 400 µM
15 | C[C@]1(c2cc(Nc3nccc4nc(OCc5cocn5)cnc34)cc(F)c2F)N=C(N)S[C@@]2(C(F)F)C[C@@H]12 [Example 867, N-(3-((1S,5S,6S)-3-amino-1-(difluoromethyl)-5-methyl-2-thia-4-azabicyclo[4.1.0]hept-3-en-5-yl)-4,5-difluorophenyl)-2-(1,3-oxazol-4-ylmethoxy)pyrido[3,4-b]pyrazin-5-amine] | 0.00171 µM | 0.0549 µM | 0.011 µM | 299 µM
16 | CC#CCOc1cnc2c(Nc3cc(F)c(F)c([C@@]4(C)N=C(N)S[C@@]5(C(F)F)C[C@@H]45)c3)nccc2n1 [Example 868, N-(3-((1S,5S,6S)-3-amino-1-(difluoromethyl)-5-methyl-2-thia-4-azabicyclo[4.1.0]hept-3-en-5-yl)-4,5-difluorophenyl)-2-(2-butyn-1-yloxy)pyrido[3,4-b]pyrazin-5-amine] | 0.000671 µM | 0.0211 µM | 0.0147 µM | > 400 µM
17 | CC#CCOc1cnc2c(Nc3cc(F)c(F)c([C@@]4(C)N=C(N)S[C@@]5(COC)C[C@H]54)c3)nccc2n1 [Example 869, N-(3-((1S,5S,6S)-3-amino-1-(methoxymethyl)-5-methyl-2-thia-4-azabicyclo[4.1.0]hept-3-en-5-yl)-4,5-difluorophenyl)-2-(2-butyn-1-yloxy)pyrido[3,4-b]pyrazin-5-amine] | 0.000725 µM | 0.0173 µM | 0.00155 µM | 127 µM
18 | Cc1nc(COc2cnc3c(Nc4cc(F)c(F)c([C@@]5(C)N=C(N)S[C@@]6(C(F)F)C[C@@H]56)c4)nccc3n2)co1 [Example 870, N-(3-((1S,5S,6S)-3-amino-1-(difluoromethyl)-5-methyl-2-thia-4-azabicyclo[4.1.0]hept-3-en-5-yl)-4,5-difluorophenyl)-2-((2-methyl-1,3-oxazol-4-yl)methoxy)pyrido[3,4-b]pyrazin-5-amine] | 0.00156 µM | 0.0326 µM | 0.02 µM | 91.3 µM
